The source of these data is ChEMBL document CHEMBL1149709, “Synthesis and SAR of 2-aryl pyrido[2,3-d]pyrimidines as potent mGlu5 receptor antagonists” (Bioorg Med Chem Lett, 2007).

The structures appear in SMILES notation. Bounds are passed on as bounds.

The target of the first series is Metabotropic glutamate receptor 5 (Rattus norvegicus, UniProt P31424). Put plainly: Antagonistic activity at rat mGluR5 expressed in CHO cells assessed as inhibition of quisqualate stimulated calcium mobilization by FLIPR technology.
Sequence of Metabotropic glutamate receptor 5 (P31424 whole entry): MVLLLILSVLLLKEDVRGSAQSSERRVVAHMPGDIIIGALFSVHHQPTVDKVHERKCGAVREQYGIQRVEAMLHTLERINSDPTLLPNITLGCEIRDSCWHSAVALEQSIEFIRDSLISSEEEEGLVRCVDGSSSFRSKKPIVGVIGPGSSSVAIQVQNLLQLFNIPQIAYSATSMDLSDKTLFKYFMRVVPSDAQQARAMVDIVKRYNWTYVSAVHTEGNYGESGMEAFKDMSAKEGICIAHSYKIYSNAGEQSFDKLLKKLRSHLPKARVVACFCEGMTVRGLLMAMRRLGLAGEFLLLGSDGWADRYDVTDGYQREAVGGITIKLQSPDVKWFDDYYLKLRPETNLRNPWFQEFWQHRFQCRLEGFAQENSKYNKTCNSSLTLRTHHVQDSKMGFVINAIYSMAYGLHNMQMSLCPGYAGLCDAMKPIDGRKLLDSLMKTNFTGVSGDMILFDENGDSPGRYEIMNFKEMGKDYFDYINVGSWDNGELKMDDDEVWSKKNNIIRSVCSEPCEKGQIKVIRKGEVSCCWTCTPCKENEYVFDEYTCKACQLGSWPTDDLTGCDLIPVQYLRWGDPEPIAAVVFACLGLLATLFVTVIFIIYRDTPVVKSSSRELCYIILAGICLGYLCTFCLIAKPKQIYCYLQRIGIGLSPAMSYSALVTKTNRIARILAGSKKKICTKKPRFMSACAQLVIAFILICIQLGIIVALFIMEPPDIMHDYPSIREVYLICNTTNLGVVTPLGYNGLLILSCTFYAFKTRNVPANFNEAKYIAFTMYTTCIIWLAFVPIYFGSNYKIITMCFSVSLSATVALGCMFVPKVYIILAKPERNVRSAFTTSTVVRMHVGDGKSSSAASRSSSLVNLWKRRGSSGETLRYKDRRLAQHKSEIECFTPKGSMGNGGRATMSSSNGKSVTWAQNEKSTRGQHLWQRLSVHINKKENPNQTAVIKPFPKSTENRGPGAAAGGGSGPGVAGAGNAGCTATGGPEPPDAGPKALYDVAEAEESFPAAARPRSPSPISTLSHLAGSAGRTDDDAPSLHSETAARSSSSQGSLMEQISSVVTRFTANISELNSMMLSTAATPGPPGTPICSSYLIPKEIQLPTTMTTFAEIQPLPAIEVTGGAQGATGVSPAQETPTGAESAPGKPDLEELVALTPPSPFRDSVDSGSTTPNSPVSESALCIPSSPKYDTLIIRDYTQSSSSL
Details: not given; call rule not given here
Format: functional, cell-based.
As to `Cc1ccc2cnc(-c3cc(Cl)cc(Cl)c3)nc2n1`, the IC50 is 0.00072 µM.

Take `Clc1cc(Cl)cc(-c2ncc3cccnc3n2)c1`: the IC50 is 0.228 µM.

As to `COc1ccccc1-c1ncc2ccc(C)nc2n1`, the IC50 was greater than 30 µM.

For `COC(=O)c1ccc(-c2ncc3ccc(C)nc3n2)cc1`, the 50% inhibitory concentration (IC50) was greater than 30 µM.

Regarding `Cc1cc(F)cc(-c2ncc3cccnc3n2)c1`, the IC50 is 0.321 µM.

As for `Cc1ccc2cnc(-c3cccc(S(C)(=O)=O)c3)nc2n1`, the IC50 is greater than 30 µM.

Take `Cc1cc(F)cc(-c2ncc3ccc(C)nc3n2)c1`: the IC50 came to 0.0397 µM.

Consider `Cc1ccc2cnc(-c3cccc(C#N)c3)nc2n1`, for which the IC50 was determined as 0.24 µM.

Take `Cc1ccc2cnc(-c3ccc(Cl)cc3Cl)nc2n1`: the IC50 is greater than 30 µM.

With `COc1cccc(-c2ncc3ccc(C)nc3n2)c1`, the IC50 was 1.5 µM.

Consider `Cc1ccc2cnc(-c3cccc(CN)c3)nc2n1`, for which the IC50 was greater than 30 µM.

With `Cc1ccc2cnc(-c3ccccc3)nc2n1`, the IC50 turned out to be 2.7 µM.

On to `Cc1ccc2cnc(-c3ccc(Br)cc3)nc2n1`, for which the IC50 is greater than 30 µM.

On to `COc1cc(OC)cc(-c2ncc3ccc(C)nc3n2)c1`, for which the IC50 stood at 0.179 µM.

For `Cc1cccc(-c2ncc3ccc(C)nc3n2)c1`, the IC50 came to 0.053 µM.

For the compound `COc1cc(C#N)cc(-c2ncc3ccc(C)nc3n2)c1`, the IC50 stood at 0.0012 µM.

With `Cc1ccc2cnc(-c3cccc(Br)c3)nc2n1`, the IC50 was 0.038 µM.

For the compound `Cc1ccc2cnc(-c3ccc(C#N)cc3)nc2n1`, the IC50 is greater than 30 µM.

For `Brc1cccc(-c2ncc3cccnc3n2)c1`, the IC50 is 0.333 µM.

For `Cc1ccc2cnc(-c3ccc(Cl)c(Cl)c3)nc2n1`, the IC50 was greater than 30 µM.

For the compound `COc1cc(-c2ncc3ccc(C)nc3n2)cc(OC)c1OC`, the IC50 was greater than 30 µM.

Regarding `COc1cc(C#N)cc(-c2ncc3cccnc3n2)c1`, the IC50 worked out at 0.00495 µM.

As for `N#Cc1cccc(-c2ncc3cccnc3n2)c1`, the IC50 is greater than 26.1 µM.

A further series concerns Rattus norvegicus. In words: Effect on rat monosodium iodoacetate model of osteoarthritis pain assessed as inhibition of change in hind paw weight at 10 mg/kg, po after 2 hrs. Format: organism-based. The arrangement: dose 10 mg/kg, route oral. To be noted: in vivo.
For the compound `COc1cc(C#N)cc(-c2ncc3ccc(C)nc3n2)c1`, the result was Active.

For a further series, the system named is Rattus norvegicus. In words: Effect on rat monosodium iodoacetate model of osteoarthritis pain assessed as inhibition of change in hind paw weight at 10 mg/kg, po after 4 hrs. Format: organism-based. Further details: dose 10 mg/kg, route oral. To be noted: in vivo.
For the compound `COc1cc(C#N)cc(-c2ncc3ccc(C)nc3n2)c1`, the outcome was Active.
